Our source for the inhibition values is patent US11572590B2, “Methods for evaluating tumor cell spheroids using 3D microfluidic cell culture device” (Dana-Farber Cancer Institute, Inc., priority 2017, dated 2023).

As a reminder, the inhibition is the relative decrease from the control value, in per cent.

Where two headings read alike, the source gives them in different places.

Holding throughout (test): SelectScreen Kinase Profiling, single point inhibition and IC50 for off-target kinases
What all share (type): biochemical

Assay [1] addresses T1, off-target kinases (Homo sapiens, UniProt O00141).
T1 sequence (O00141 1-431): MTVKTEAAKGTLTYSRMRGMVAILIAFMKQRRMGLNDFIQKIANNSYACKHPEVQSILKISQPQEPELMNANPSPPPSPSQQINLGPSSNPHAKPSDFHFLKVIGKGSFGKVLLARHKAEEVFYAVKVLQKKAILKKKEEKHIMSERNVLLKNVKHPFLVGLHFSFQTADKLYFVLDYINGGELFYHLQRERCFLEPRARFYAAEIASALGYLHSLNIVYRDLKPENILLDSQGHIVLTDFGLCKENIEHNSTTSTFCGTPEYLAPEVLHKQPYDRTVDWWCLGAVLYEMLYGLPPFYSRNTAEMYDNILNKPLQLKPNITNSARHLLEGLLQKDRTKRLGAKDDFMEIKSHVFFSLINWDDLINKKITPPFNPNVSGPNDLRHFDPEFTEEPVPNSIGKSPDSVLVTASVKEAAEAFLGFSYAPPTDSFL
As to conditions: SGK (SGK1), ZLYTE, ATP Km app.

Assay [2] addresses T2, off-target kinases (Homo sapiens, UniProt Q96L34).
T2 sequence (Q96L34 1-752): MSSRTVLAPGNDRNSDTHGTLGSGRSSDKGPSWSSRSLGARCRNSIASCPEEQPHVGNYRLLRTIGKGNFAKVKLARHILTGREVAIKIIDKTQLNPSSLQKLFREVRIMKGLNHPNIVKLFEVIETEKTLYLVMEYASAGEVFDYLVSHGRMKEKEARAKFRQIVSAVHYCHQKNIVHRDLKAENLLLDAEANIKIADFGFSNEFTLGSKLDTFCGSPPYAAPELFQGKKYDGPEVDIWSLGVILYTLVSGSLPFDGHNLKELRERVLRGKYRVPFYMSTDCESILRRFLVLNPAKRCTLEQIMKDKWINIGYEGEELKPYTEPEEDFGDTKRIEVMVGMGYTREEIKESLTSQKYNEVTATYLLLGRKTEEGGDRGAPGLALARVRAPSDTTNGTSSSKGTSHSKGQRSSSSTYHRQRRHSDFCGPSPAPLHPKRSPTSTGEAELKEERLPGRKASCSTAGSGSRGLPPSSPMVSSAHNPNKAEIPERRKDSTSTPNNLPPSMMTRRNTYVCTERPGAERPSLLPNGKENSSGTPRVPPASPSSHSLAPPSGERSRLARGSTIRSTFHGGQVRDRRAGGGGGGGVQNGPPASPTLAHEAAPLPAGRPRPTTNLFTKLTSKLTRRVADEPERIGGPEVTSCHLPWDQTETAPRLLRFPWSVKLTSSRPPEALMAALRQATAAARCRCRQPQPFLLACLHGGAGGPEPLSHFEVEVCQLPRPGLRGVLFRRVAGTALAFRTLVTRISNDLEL
As to conditions: MARK4, ATP Km app, ZLYTE.

Assay [3] has as its target off-target kinases (Homo sapiens, UniProt Q9H3Y6). As to conditions: SRMS (Srm), ZLYTE, ATP Km app.
In assay [4] the target is off-target kinases (Homo sapiens, UniProt O00750). As to conditions: PIK3C2B (PI3K-C2 beta), Adapta, ATP 10.
off-target kinases (Homo sapiens, UniProt O00750), sequence (O00750 whole entry): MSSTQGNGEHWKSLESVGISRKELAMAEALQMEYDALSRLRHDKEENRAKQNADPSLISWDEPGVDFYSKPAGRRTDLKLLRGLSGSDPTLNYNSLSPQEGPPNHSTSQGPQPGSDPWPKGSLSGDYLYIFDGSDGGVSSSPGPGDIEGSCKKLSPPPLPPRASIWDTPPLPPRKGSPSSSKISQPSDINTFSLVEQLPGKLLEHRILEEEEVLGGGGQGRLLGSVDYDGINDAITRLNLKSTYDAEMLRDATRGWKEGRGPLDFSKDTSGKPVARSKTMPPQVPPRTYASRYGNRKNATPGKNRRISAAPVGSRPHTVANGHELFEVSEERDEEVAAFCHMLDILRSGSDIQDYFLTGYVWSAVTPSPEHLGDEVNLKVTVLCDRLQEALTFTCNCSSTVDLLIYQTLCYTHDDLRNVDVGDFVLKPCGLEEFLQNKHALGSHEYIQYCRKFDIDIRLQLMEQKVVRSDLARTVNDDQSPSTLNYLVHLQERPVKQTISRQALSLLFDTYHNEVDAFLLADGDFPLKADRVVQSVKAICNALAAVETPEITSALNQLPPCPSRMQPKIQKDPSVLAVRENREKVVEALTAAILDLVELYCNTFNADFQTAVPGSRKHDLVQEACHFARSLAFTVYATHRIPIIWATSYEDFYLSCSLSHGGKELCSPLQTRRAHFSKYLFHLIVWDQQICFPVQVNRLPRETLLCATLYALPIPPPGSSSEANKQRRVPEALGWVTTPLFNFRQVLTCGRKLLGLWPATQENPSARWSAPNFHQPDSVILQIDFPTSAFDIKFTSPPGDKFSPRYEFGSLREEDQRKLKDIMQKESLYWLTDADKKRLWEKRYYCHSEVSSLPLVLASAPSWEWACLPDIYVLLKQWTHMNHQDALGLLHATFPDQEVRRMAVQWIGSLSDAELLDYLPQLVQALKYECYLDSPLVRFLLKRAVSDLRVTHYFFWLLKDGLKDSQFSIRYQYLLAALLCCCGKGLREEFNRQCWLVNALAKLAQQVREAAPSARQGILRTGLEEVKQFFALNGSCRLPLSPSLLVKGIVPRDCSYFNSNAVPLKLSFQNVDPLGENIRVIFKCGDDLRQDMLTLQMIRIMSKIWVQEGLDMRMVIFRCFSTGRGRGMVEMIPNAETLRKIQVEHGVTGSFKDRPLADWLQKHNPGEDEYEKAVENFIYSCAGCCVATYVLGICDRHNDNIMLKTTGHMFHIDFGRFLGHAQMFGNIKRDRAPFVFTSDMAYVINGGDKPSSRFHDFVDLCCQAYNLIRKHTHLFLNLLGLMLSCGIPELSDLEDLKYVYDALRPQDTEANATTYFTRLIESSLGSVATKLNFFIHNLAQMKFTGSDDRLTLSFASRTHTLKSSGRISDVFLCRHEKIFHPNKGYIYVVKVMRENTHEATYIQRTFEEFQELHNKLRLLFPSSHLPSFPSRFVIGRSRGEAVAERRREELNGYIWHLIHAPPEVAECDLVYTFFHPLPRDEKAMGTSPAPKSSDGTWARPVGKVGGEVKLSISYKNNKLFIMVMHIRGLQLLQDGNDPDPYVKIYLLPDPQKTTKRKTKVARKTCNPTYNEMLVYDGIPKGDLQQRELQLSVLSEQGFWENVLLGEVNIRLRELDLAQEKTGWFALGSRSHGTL
The target of assay [5] is off-target kinases (Homo sapiens, UniProt Q02779). As to conditions: MAP3K10 (MLK2), LanthaScreen Binding.
off-target kinases (Homo sapiens, UniProt Q02779), sequence (Q02779 whole entry): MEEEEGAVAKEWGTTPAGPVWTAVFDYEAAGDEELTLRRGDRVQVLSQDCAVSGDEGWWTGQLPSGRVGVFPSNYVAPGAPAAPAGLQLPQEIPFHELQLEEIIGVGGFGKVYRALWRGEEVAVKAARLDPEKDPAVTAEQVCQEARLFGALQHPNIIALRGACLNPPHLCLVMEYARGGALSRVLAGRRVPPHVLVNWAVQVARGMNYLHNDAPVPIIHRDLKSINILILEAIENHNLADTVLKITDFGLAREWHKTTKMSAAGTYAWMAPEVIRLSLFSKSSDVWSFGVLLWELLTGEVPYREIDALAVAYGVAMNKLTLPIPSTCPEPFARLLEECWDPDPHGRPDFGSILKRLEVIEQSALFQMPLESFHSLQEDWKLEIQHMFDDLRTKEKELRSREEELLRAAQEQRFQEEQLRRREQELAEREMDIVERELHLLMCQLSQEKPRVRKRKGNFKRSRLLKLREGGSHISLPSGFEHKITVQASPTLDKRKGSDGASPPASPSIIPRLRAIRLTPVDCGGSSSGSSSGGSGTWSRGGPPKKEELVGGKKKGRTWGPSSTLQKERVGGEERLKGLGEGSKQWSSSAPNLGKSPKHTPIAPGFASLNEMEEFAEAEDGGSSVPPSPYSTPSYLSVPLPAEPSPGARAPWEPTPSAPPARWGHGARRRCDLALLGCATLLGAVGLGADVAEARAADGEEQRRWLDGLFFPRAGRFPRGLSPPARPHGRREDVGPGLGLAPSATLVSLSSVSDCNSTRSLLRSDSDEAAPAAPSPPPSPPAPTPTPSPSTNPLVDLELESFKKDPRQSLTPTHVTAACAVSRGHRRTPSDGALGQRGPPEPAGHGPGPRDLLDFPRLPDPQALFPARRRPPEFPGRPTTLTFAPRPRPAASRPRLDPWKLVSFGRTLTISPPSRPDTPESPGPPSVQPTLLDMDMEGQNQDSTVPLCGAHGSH

off-target kinases (Homo sapiens, UniProt Q9H3Y6), sequence (Q9H3Y6 whole entry): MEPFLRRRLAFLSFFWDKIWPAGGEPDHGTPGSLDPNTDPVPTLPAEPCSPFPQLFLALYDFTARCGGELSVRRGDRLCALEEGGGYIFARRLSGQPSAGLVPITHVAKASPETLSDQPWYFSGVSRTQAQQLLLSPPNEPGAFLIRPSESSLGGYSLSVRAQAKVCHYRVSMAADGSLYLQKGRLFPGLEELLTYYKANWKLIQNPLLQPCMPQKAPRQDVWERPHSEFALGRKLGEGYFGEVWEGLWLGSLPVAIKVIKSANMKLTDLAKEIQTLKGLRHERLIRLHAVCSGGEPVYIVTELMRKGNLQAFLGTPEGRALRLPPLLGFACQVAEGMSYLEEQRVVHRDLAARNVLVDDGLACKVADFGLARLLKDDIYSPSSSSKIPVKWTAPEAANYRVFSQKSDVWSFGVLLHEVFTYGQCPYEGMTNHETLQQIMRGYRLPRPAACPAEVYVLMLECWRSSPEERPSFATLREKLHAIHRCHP

In the case of `N#Cc1cc(-c2ncnc(Nc3ccc(N4CCN(C5COC5)CC4)cc3)n2)ccc1OC1CCOCC1` [Compound 1, 5-(4-((4-(4-(oxetan-3-yl)piperazin-1-yl)phenyl)amino)-1,3,5-triazin-2-yl)-2-((tetrahydro-2H-pyran-4-yl)oxy)benzonitrile], the inhibition was found to be 28% in assay [1] (read-out: % Inhibition 1); 26% in assay [1] (read-out: % Inhibition 2); 27% in assay [1] (read-out: % Inhibition Avg); 96% in assay [2] (read-out: % Inhibition 1); 93% in assay [2] (read-out: % Inhibition 2); 95% in assay [2] (read-out: % Inhibition Avg). Also, the inhibition in assay [3] (read-out: % Inhibition 1) was 5%; in assay [3] (read-out: % Inhibition 2) it was 3%; in assay [3] (read-out: % Inhibition Avg), 4%; in assay [4] (read-out: % Inhibition 1) it was 3%; in assay [4] (read-out: % Inhibition 2) it was -7%; in assay [4] (read-out: % Inhibition Avg) it was -2%. Also, the inhibition in assay [5] (read-out: % Inhibition 1) was 58%; in assay [5] (read-out: % Inhibition 2), 60%; in assay [5] (read-out: % Inhibition Avg), 59%.
